Where two headings read alike, the source gives them in different places.
Key:
Assay type in all cases: cell-based
Conditions in all cases: Homo sapiens, 5 hours treatment
Aβ-42 = Aβ-42 MSD 3-plex ELISA, conditioned media of 2B7 cells
Protocol: (§1) Assays were conducted to determine the ability of a Compound of Formula I to modulate […], and Aβ-38.
(§2) Plates with capture antibodies were blocked for 1-2 hours at room temperature with 150 μL of the manufactures blocking reagent.
(§3) Cultured 2B7 cells in 96 well plate with 250 μL of media per well until confluent;
(§4) Prepared serial dilutions of compounds in DMSO at 100× the final desired concentration;
(§5) Washed wells with 2B7 cells 1× with 250 μL of media;
(§6) Diluted DMSO stocks 1:100 into media: • Added 250 μL of media containing compounds (1% DMSO) to wells with 2B7 cells for 5 hours at 37° C.
(§7) ELISA Sample Prep: • Diluted conditioned media: 1 part media with 1% DMSO and 1 part blocking buffer; • 150 μL of the 250 μL of conditioned media were used.
(§8) Prepared per manufacturer's protocol (see above). • Seven point standard curve samples were prepared that contained Aβ-42, Aβ-40, and Aβ-38. The highest concentration of Aβ-42 and Aβ-38 was 3,000 pg/mL and the highest concentration of Aβ-40 was 10,000 pg/mL. Subsequent serial dilutions were 1:3 and the final composition of each sample was 1 part blocking buffer and 1 part cell medium containing 1% DMSO.
(§9) Overnight Sample Incubation: • Blocked plates are washed 5× with MSD wash buffer with a plate washer; • […] and blocker G reagent in MSD blocking solution was added; • 25 μL of samples (1 part conditioned media containing 1% DMSO and 1 part MSD blocking buffer) were then added; • Plates were incubated overnight at 4 degrees C. or 2 hours at room temperature.
(§10) Final Wash and Readout: • Washed wells 5× with MSD wash buffer; • Added 150 μL 2×MSD read buffer; • Read with MSD imager.
(§11) Aβ peptide levels for each peptide were calculated from the standard curve using the MSD software provided with the MSD 2400 Imager. Percent vehicle values for each compound dosage were then calculated and fit to a 4 parameter curve generating IC50 values.
(§12) Conditioned media from 2B7 cells (Mayo) was collected after 5 hours of treatment and diluted with 1 volume of Meso Scale Discovery (MSD, Gaithersburg Md.) blocking buffer (1% BSA in MSD wash buffer). For total Aβ measurements, standard-bind, multi-array single spot 96 well MSD ELISA plates were coated with unlabeled 4G8 capture antibody (Covance, Princeton, N.J.) overnight at 4° C. and then blocked with 5% BSA in MSD wash buffer for 1 hour at room temperature with orbital shaking Diluted 2B7 conditioned media were added to the blocked in-house total Aβ MSD plates with SULFO-TAG 6E10 antibody (MSD). For Aβ38, 40 and 42 measurements, diluted 2B7 conditioned media were added to blocked human (6E10) Aβ 3-Plex plates (MSD). Total Aβ and Aβ 3-Plex plates were incubated for 2 hours at room temperature with orbital shaking followed by washing and reading according to the manufacturer's instructions (SECTOR® Imager 2400, MSD). Aβ concentrations were converted to percent vehicle values and used to construct dose response curves which were fitted to […] using GraphPad Prism version 5.00 for Windows, GraphPad Software, San Diego Calif. USA.

Aβ-38 = Aβ-38 MSD 3-plex ELISA, conditioned media of 2B7 cells
Protocol: as §1, §2, §3, §4, §5, §6, §7, §8, §9, §10, §11, §12

Aβ-40 = Aβ-40 MSD 3-plex ELISA, conditioned media of 2B7 cells
Protocol: as §1, §2, §3, §4, §5, §6, §7, §8, §9, §10, §11, §12

[1] = inflection of dose response curve, read-out: Aβ 42 DR IC50 Inflection
[2] = inflection of dose response curve, read-out: Aβ 40 DR IC50 Inflection
[3] = inflection of dose response curve, read-out: Aβ 38 DR IC50 Inflection

CCO[C@@H]([C@H]1C[C@@H](C)[C@H]2[C@H](O1)[C@H](O)[C@@]1(C)[C@@H]3CC[C@H]4C(C)(C)[C@@H](O[C@H]5CN(CC6CN(CC(C)(C)C)C6)CCO5)CC[C@@]45C[C@@]35CC[C@]21C)C(C)(C)O [Compound I-18] was tested, and the IC50 (Aβ-42; [1]) was 100 to 500 nM, the IC50 (Aβ-42; read-out: Aβ 42 IC50) was 100 to 500 nM and the IC50 (Aβ-38; read-out: Aβ 38 IC50) was 501 to 1000 nM. The IC50 (Aβ-40; [2]) was 1 to 5 µM and the IC50 (Aβ-40; read-out: Aβ 40 IC50) was 1 to 5 µM.

With CCO[C@@H]([C@H]1C[C@@H](C)[C@H]2[C@H](O1)[C@H](O)[C@@]1(C)[C@@H]3CC[C@H]4C(C)(C)[C@@H](O[C@H]5CN(C6CCN(C7CCC7)CC6)CCO5)CC[C@@]45C[C@@]35CC[C@]21C)C(C)(C)O [Compound I-21] the IC50 (Aβ-42; [1]) was 100 to 500 nM, the IC50 (Aβ-42; read-out: Aβ 42 IC50) was 100 to 500 nM and the IC50 (Aβ-38; [3]) was 501 to 1000 nM. For the same compound, the IC50 (Aβ-38; read-out: Aβ 38 IC50) was 501 to 1000 nM, the IC50 (Aβ-40; [2]) was 1 to 5 µM and the IC50 (Aβ-40; read-out: Aβ 40 IC50) was 1 to 5 µM.

For CCO[C@@H]([C@H]1C[C@@H](C)[C@H]2[C@H](O1)[C@H](O)[C@@]1(C)[C@@H]3CC[C@H]4C(C)(C)[C@@H](O[C@H]5CN(CC6CN(C7CCC7)C6)CCO5)CC[C@@]45C[C@@]35CC[C@]21C)C(C)(C)O [Compound I-23], the IC50 (Aβ-42; [1]) was 100 to 500 nM, the IC50 (Aβ-42; read-out: Aβ 42 IC50) was 100 to 500 nM and the IC50 (Aβ-38; read-out: Aβ 38 IC50) was 100 to 500 nM. For the same compound, the IC50 (Aβ-40; [2]) was greater than 5 µM and the IC50 (Aβ-40; read-out: Aβ 40 IC50) was 1 to 5 µM.

CCO[C@@H]([C@H]1C[C@@H](C)[C@H]2[C@H](O1)[C@H](O)[C@@]1(C)[C@@H]3CC[C@H]4C(C)(C)[C@@H](O[C@H]5CN(CC6CN(CC7(C)COC7)C6)CCO5)CC[C@@]45C[C@@]35CC[C@]21C)C(C)(C)O [Compound I-26] gave an IC50 (Aβ-42; [1]) of 100 to 500 nM, an IC50 (Aβ-42; read-out: Aβ 42 IC50) of 100 to 500 nM and an IC50 (Aβ-38; [3]) of 1000 to 5000 nM. For the same compound, the IC50 (Aβ-38; read-out: Aβ 38 IC50) was 501 to 1000 nM, the IC50 (Aβ-40; [2]) was 1 to 5 µM and the IC50 (Aβ-40; read-out: Aβ 40 IC50) was 1 to 5 µM.

In the case of CCO[C@@H]([C@H]1C[C@@H](C)[C@H]2[C@H](O1)[C@H](O)[C@@]1(C)[C@@H]3CC[C@H]4C(C)(C)[C@@H](O[C@H]5CN(C6(C)CN(C7CCC7)C6)CCO5)CC[C@@]45C[C@@]35CC[C@]21C)C(C)(C)O [Compound I-27], the IC50 (Aβ-42; [1]) is reported as less than 100 nM, the IC50 (Aβ-42; read-out: Aβ 42 IC50) is reported as 100 to 500 nM and the IC50 (Aβ-38; read-out: Aβ 38 IC50) is reported as 100 to 500 nM. The IC50 (Aβ-40; read-out: Aβ 40 IC50) was 1 to 5 µM.

Work on CCO[C@@H]([C@H]1C[C@@H](C)[C@H]2[C@H](O1)[C@H](O)[C@@]1(C)[C@@H]3CC[C@H]4C(C)(C)[C@@H](O[C@H]5CN(C6CCN(C)CC6)CCO5)CC[C@@]45C[C@@]35CC[C@]21C)C(C)(C)O [Compound I-29] yielded an IC50 (Aβ-42; [1]) of less than 100 nM, an IC50 (Aβ-42; read-out: Aβ 42 IC50) of less than 100 nM and an IC50 (Aβ-38; read-out: Aβ 38 IC50) of 100 to 500 nM. For the same compound, the IC50 (Aβ-40; read-out: Aβ 40 IC50) was 1 to 5 µM.

CCO[C@@H]([C@H]1C[C@@H](C)[C@H]2[C@H](O1)[C@H](O)[C@@]1(C)[C@@H]3CC[C@H]4C(C)(C)[C@@H](O[C@H]5CN(C6(C)CN(C)C6)CCO5)CC[C@@]45C[C@@]35CC[C@]21C)C(C)(C)O [Compound I-31] gave an IC50 (Aβ-42; [1]) of less than 100 nM, an IC50 (Aβ-42; read-out: Aβ 42 IC50) of less than 100 nM and an IC50 (Aβ-38; read-out: Aβ 38 IC50) of 100 to 500 nM. The IC50 (Aβ-40; read-out: Aβ 40 IC50) was 1 to 5 µM.

With CCO[C@@H]([C@H]1C[C@@H](C)[C@H]2[C@H](O1)[C@H](O)[C@@]1(C)[C@@H]3CC[C@H]4C(C)(C)[C@@H](O[C@H]5CN(C6CN(CC7(C)COC7)C6)CCO5)CC[C@@]45C[C@@]35CC[C@]21C)C(C)(C)O [Compound I-32] the IC50 (Aβ-42; [1]) was 100 to 500 nM, the IC50 (Aβ-42; read-out: Aβ 42 IC50) was 100 to 500 nM and the IC50 (Aβ-38; read-out: Aβ 38 IC50) was 100 to 500 nM. The IC50 (Aβ-40; read-out: Aβ 40 IC50) was 1 to 5 µM.

With CCO[C@@H]([C@H]1C[C@@H](C)[C@H]2[C@H](O1)[C@H](O)[C@@]1(C)[C@@H]3CC[C@H]4C(C)(C)[C@@H](O[C@H]5CN(C6(C)CN(CC7(C)COC7)C6)CCO5)CC[C@@]45C[C@@]35CC[C@]21C)C(C)(C)O [Compound I-34] the IC50 (Aβ-42; [1]) was 100 to 500 nM, the IC50 (Aβ-42; read-out: Aβ 42 IC50) was 100 to 500 nM and the IC50 (Aβ-38; read-out: Aβ 38 IC50) was 501 to 1000 nM. It also gave an IC50 (Aβ-40; read-out: Aβ 40 IC50) of 1 to 5 µM.

Compound CCO[C@@H]([C@H]1C[C@@H](C)[C@H]2[C@H](O1)[C@H](O)[C@@]1(C)[C@@H]3CC[C@H]4C(C)(C)[C@@H](O[C@H]5CN(C6(C)CN(CCOC)C6)CCO5)CC[C@@]45C[C@@]35CC[C@]21C)C(C)(C)O [Compound I-37] has an IC50 (Aβ-42; [1]) of less than 100 nM, an IC50 (Aβ-42; read-out: Aβ 42 IC50) of 100 to 500 nM and an IC50 (Aβ-38; read-out: Aβ 38 IC50) of 100 to 500 nM. The IC50 (Aβ-40; read-out: Aβ 40 IC50) was 1 to 5 µM.

Reference: patent US20130060020A1, “Compounds useful for treating neurodegenerative disorders” (Satori Pharmaceuticals, Inc., priority 2011, published 2013)
